Where no end group is shown, it is not given here.
Key:
U87MG cells [1] = assay: Transwell migration assay, U87MG; type: cell-based, human; conditions: PcTX1, pH 7.0 for 3 h, counted after 24 h
Experimental: The assay is based on two compartments separated by a mem-brane with an accurately defined pore size. Cell transwell chambers with 8-μm pore size of poly-carbonate membrane filters (Corning, USA) were first pre-coated with poly-L-ornithine over-night. Before plating cells, chambers were incubated with serum-free culture medium for 30 minutes. After that, cells were seeded with culture medium containing 1% FBS in the upper-chambers that were immersed to 750 μl whole medium (DMEM with 10% FBS). After incubating for another 24 hours, some cells on the upper surface of the filter migrated through the membrane to the lower surface of the filter. Cells on the upper face of the filter were wiped out thoroughly with cotton swabs, and those attached on the lower surface were fixed with 4% paraformaldehyde for 15 min. They were then stained with 0.5% crystal violet for 10 min, and let the membrane air dry. The cells on the lower surface of the membrane filter were counted under a microscope in 3-4 random fields with 10× magnification. Cell numbers in each group were normalized to the control groups. Assays were performed in at least 3 independent experiments. […]
Next, the study examined whether knock-down of ASIC1 affects cell proliferation in the presence or absence of extracellular weak acid. […] The effect of ASIC1 knockdown on migration was also assessed by transwell.

ASIC1 = biological target: T1, ASIC1 (Homo sapiens, UniProt P78348); assay: Whole-cell patch-clamp recording of acid-activated currents; type: cell-based; conditions: PcTX1 20 nM perfusion for several minutes; pH drop 7.4 to 6.0; U87MG cells; n=5
T1 construct: drop of extra-cellular pH from 7.4 to 6.0 can induce transient inward currents in A172 and U87MG cells; endogenous in cells; host or cells: U87MG human glioblastoma cells (ATCC)
T1 sequence (P78348 1-528): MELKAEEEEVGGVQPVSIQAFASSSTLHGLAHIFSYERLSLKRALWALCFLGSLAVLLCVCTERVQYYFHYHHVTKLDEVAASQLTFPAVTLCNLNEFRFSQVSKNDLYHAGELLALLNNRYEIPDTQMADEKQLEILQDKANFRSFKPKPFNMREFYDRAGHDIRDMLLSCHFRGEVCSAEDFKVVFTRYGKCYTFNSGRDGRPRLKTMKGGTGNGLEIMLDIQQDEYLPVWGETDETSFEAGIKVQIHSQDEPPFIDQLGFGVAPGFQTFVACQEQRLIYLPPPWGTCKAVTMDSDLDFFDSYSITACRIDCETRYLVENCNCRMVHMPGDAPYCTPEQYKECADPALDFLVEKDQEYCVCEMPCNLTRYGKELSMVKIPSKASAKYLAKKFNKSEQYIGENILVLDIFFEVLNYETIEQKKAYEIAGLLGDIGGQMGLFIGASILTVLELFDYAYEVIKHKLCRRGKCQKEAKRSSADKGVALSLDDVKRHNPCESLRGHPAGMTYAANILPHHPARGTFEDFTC
Experimental: Whole-cell currents were recorded by patch-clamp techniques. The currents were recorded with an Axopatch 200B amplifier and low-pass filtered at 2 KHz, digitized using Digidata 1320 DAC unit. Cells were clamped at a holding potential of −80 mV. The patch pipettes were made from thin walled borosilicate glass micropipettes (1.5 mm diameter, World Precision Instruments, Sarasota, FL) by a micropipette puller (PP83; Tokyo, Japan). The range of pipette resistance was 3-5 MΩ when filled with intracellular solu-tion contained 140 mM CsF, 1 mM CaCl2, 2 mM MgCl2, 10 mM HEPES, 11 mM EGTA, 2 mM tet-raethylammonium chloride, and 4 mM MgATP; pH 7.3 adjusted with CsOH, 290 to 300 mOsm adjusted with sucrose. Cells were perfused with an extracellular fluid (ECF) contained 140 mM NaCl, 5.4 mM KCl, 2 mM CaCl2, 1 mM MgCl2, 10 mM Glucose, and 10 mM HEPES; pH 7.4 and 6.0 adjusted with NaOH, 320-330 mOsm. […] The data were recorded and analyzed with pClamp and Sigma Plot software.
To determine whether ASIC1 is expressed in human glioma cells, we first investigated the expression of ASIC1 protein in A172 and U87-MG cells by Western blotting. […] Next, the study detected the existence of acid-activated currents and the effect of pharmacologic agents on the currents. Acid-activated currents were recorded by whole cell patch-clamp. […]

U87MG cells [2] = assay: Cell viability (MTT) proliferation assay, U87MG; type: cell-based, human; conditions: 20 nM PcTX1 with weak acid (pH 7.0), 3 h; different time points
Experimental: (§1) Cells were seeded in 96-well plates overnight and then incubated with pH 7.4 or 7.0 ECF in the absence or presence of 20 nM PcTX1 for 3 h, and then changed to culture medium containing 5% FBS incubating for 24 h, 48 h and 72 h. After the treatments, cell viability was measured by MTT Cell Proliferation Assay Kit according to the manufacturer's instructions. The absorbance values at 540 nm were detected by spectrometer (Molecular devices).
(§2) Severe acidosis (e.g. pH 6.0) promotes the proliferation of some type of glioma cells. This study first tested the effect of weak acid on the proliferation of A172 and U87MG cells. The study used either pH 7.4 or pH 7.0 solution to pretreat cells for 3 h, and then changed back to medium containing 5% FBS. The cell viability was measured at 24 h, 48 h and 72 h after acid treatment by MTT assay.
(§3) Next, the study examined whether knock-down of ASIC1 affects cell proliferation in the presence or absence of extracellular weak acid. MTT assay was performed to detect the cell viability at 24 h and 72 h with and without acid treatment both in siRNA-Control and siRNA-ASIC1 groups. […] The study further examined whether knockdown of ASIC1 has an effect on the migration of U87MG cells. […] The effect of ASIC1 knockdown on migration was also assessed by transwell.

U87MG cells [3] = assay: Wound-healing assay, U87MG; type: cell-based, human; conditions: weak acid pH 7.0
Experimental: (§4) Wound-healing assay was performed. Cells were seeded into a 24-well plate and grown to ˜80% confluence. The cell monolayer was scratched with 200 μl sterile pipette tip and treated with ECF with or without PcTX1 for 3 hours. The original wound areas at 0 hour were photographed with microscope (Olympus FSX100, 4×). After 3 hours, cells were then incubated with culture medium containing 1% FBS for 24 hours. 24 hours later, images were taken from the same location of the original wound areas and the migration distance was measured with Image J software. The wound-healing rate was calculated as: the ratio of wound closure=[(Area of original wound at 0 h−Area of wound after healing at 24 h)/Area of original wound at 0 h]×100%.
as §3

A172 cells [4] = assay: Transwell migration assay, A172; type: cell-based, human; conditions: PcTX1 20 nM, pH 7.0 for 3 h, counted after 24 h
Experimental: The assay is based on two compartments separated by a mem-brane with an accurately defined pore size. Cell transwell chambers with 8-μm pore size of poly-carbonate membrane filters (Corning, USA) were first pre-coated with poly-L-ornithine over-night. Before plating cells, chambers were incubated with serum-free culture medium for 30 minutes. After that, cells were seeded with culture medium containing 1% FBS in the upper-chambers that were immersed to 750 μl whole medium (DMEM with 10% FBS). After incubating for another 24 hours, some cells on the upper surface of the filter migrated through the membrane to the lower surface of the filter. Cells on the upper face of the filter were wiped out thoroughly with cotton swabs, and those attached on the lower surface were fixed with 4% paraformaldehyde for 15 min. They were then stained with 0.5% crystal violet for 10 min, and let the membrane air dry. The cells on the lower surface of the membrane filter were counted under a microscope in 3-4 random fields with 10× magnification. Cell numbers in each group were normalized to the control groups. Assays were performed in at least 3 independent experiments.
To further examine the role of ASIC1 in glioma cell migration, the study performed a transwell migration assay using inserts with an 8-μm pore size. […]

A172 cells [5] = assay: Cell viability (MTT) proliferation assay, A172; type: cell-based, human; conditions: 20 nM PcTX1, 3 h in pH 7.4 or 7.0 ECF; 24 h, 48 h and 72 h
Experimental: as §1, §2

A172 cells [6] = assay: Wound-healing assay, A172; type: cell-based, human; conditions: weak acid pH 7.0
Experimental: as §4

PcTX1 (LECWKRRRSFEVCVPKTPKT; ends and bridges not checked; cysteine pairing not given here)
effect on acid-induced increase of migrated U87MG cells (transwell) (U87MG cells [1]): completely blocked
decrease of the peak of acid-activated currents (ASIC1): 80%
effect on proliferation of U87MG cells (MTT) (U87MG cells [2]): no clear effect
effect on acid-induced migration of U87MG cells (wound-healing and transwell, summary) (U87MG cells [3]): effectively blocked
effect on acid induced migration of A172 cells (transwell) (A172 cells [4]): completely inhibited
effect on proliferation of A172 cells (MTT) (A172 cells [5]): no influence
effect on acid-induced migration of A172 cells (wound-healing and transwell, summary) (A172 cells [6]): effectively blocked
